Measurements taken from patent US20240051997A1, “SAP AND PEPTIDOMIMETIC COMPOSITIONS FOR REDUCING SYMPTOMS OF INFLAMMATION” (Arch Biosurgery, Inc., priority 2018, published 2024).

What was measured:
[1] = tested on: kidney inflammation, ED-1 reactivity (macrophage activation); experiment: Acute kidney injury model (stab wound plus cautery), ED-1 immunohistochemistry; type: in vivo, Sprague-Dawley rat; conditions: rat kidney, 3% solution of EARA-16 or 1% solution of KS
Description: The anti-inflammatory effects of EARA-16 (SEQ ID NO: 89) and a RADA-kidney specific peptide conjugate (Ac-(RADA)3CVSVPQAL-CONH2; SEQ ID NO: 413; referred to as KS) were examined. Specifically, the effects of EARA-16 and KS on inflammation caused by burn damage were examined using an acute kidney injury model. Levels of inflammation were assayed through immuno-histochemical ED-1 reactivity (ED-1 serves as a marker of macrophage activation).
Adult Sprague-Dawley rats were anesthetized and their intraperitoneal cavities were opened under aseptic conditions. For each animal, the kidney was exposed and then subjected to a stab wound injury.
Cautery was then performed at the injury site to stop bleeding. After cauterization, the injury site was either left untreated and the animals were closed or the site was treated with a 3% solution of EARA-16 (SEQ ID NO: 89) or a 1% solution of KS (SEQ ID NO: 413). The animals were allowed to survive for up to 14 days. The animals were then sacrificed and their kidneys were harvested and sectioned. An ED-1 antibody was used to determine the level of inflammation and activation of macrophages in the kidney via immunohistochemistry (IHC). For each experimental condition, n=3 (max).
Animals receiving no injury, but in which saline was applied to the kidney in a similar location to that of the experimental animals, were used as controls (n=8).

[2] = tested on: olfactory bulb inflammation, GFAP (reactive astrocytes); experiment: Olfactory bulb injury model (transection), GFAP immunohistochemistry; type: in vivo, Sprague-Dawley rat; conditions: rat olfactory bulb, days 2-14
Description: The anti-inflammatory effects of EARA-16 (SEQ ID NO: 89) and RADA-16 (SEQ ID NO: 1) were examined using an olfactory bulb injury model. Levels of inflammation were assayed through immunohistochemical staining for glial fibrillary acidic protein (GFAP) as an indicator of reactive astrocytes.
In brief, the olfactory bulbs of adult Sprague-Dawley rats were unilaterally transected and the cuts were then treated with either saline as a control, or one of RADA-16 (SEQ ID NO: 1) or EARA-16 (SEQ ID NO: 89) solutions (each used at 1% and 3%). The SAP materials were injected into the cuts post transection at the time of surgery. After 2, 7 or 14 days, the animals were sacrificed.
A more detailed protocol is as follows: adult Sprague-Dawley rats were anesthetized with a mixture of ketamine (80 mg/kg, i. p.) and xylazine (8 mg/kg, i. p.). The head was shaved and a thorough disinfection of the head surface was carried out with iodine 5% solution. The bilateral olfactory bulbs were exposed by drilling two burr holes (2 mm diameter, 8 mm anterior to the bregma) on either side at a distance of 2 mm from the midline of the frontal bone in the region overlying the olfactory bulbs. A cataract knife with a blunted end and one sharpened edge was used for surgery. The cut was performed on the middle of olfactory bulb. The blunted edge of the knife was inserted along the middle line of the olfactory bulb to prevent damage of the sagittal sinus, until the tip of the knife lightly touched the bottom of the brain without penetration of the dura. The knife was then moved laterally to transect the bulb until it reached the lateral edge of the hole. The knife was then rotated and pulled out to have a complete cut of the bulb at lateral side. This procedure was modified from the method described in several previous studies attempting to isolate the olfactory bulb from other parts of the brain (Ahrens & Freeman 2001; Allison 1953; Chaput 1983; Freeman 1968; Koliatsos et al 2004; Munirathinam et al 1997).
After performing the cut, one of the solutions was used to treat the injury site: either 10 μl saline (control group) or the EARA-16 (SEQ ID NO: 89) or RADA-16 (SEQ ID NO: 1) SAP (at a concentration of 1% and 3%) was injected evenly into the wound site using a self-constructed hydraulic pressure injection system without micro syringe. This technique was modified from similar methods as described by Bullier and others (Bullier et al 1980; Fish & Rhoades 1981; Kratskin et al 1997; Meyers & Snow 1981; Price et al 1977; Shipley 1982). Care was taken to control the speed of the injection of the saline or the SAP. After the injection, the wound was closed and the animals were placed in a warm place for recovery before they were brought back to their home cages. […]

[3] = tested on: liver inflammation, ED-1 reactivity (macrophage activation); experiment: Rat liver injury model (punch biopsy), ED-1 immunohistochemistry; type: in vivo, Sprague-Dawley rat; conditions: 4 mm punch biopsy, all time-points observed, compared to saline or acid controls
Description: (§1) The anti-inflammatory effects of EARA-16 (SEQ ID NO: 89) and RADA-16 (SEQ ID NO: 1) SAPs were examined using a liver injury model. Levels of inflammation were assayed through immuno-histochemical ED-1 reactivity (ED-1 serves as a marker of macrophage activation).
(§2) Pigs or adult Sprague-Dawley rats were anesthetized and their intraperitoneal cavities were opened under aseptic conditions. For each animal, the liver was exposed and then subjected to an 8 mm (pig) or 4 mm (rat) punch biopsy.
(§3) The punch sites were then cauterized or treated with acid (for pH control), saline, or RADA-16 (SEQ ID NO: 1) or EARA-16 (SEQ ID NO: 89) solutions. The animals were allowed to survive for up to 14 days. The animals were then sacrificed and their livers were harvested and sectioned. An ED-1 antibody was used to determine the level of inflammation and activation of macrophages in the liver via immunohistochemistry (IHC).

[4] = tested on: liver inflammation, ED-1 reactivity (macrophage activation); experiment: Pig liver injury model (punch biopsy), ED-1 immunohistochemistry; type: in vivo; conditions: 8 mm punch biopsy, day 7 post-treatment, compared to saline or cauterization controls
Description: as §1, §2, §3

Substance | reduction in inflammation compared to cautery only (ED-1 IHC) ([1]; 7-day survival) | reduction in inflammation compared to cautery only (ED-1 IHC) ([1]; 14-day survival) | time course of reactive astrocyte activation / inflammation (GFAP) ([2]; 1% solution) | time course of reactive astrocyte activation / inflammation (GFAP) ([2]; 3% solution) | levels of inflammation in liver (ED-1 IHC) [3] | levels of inflammation in liver (ED-1 IHC) [4]
Ac-(RADA)3CVSVPQAL-CONH2 (Ac-RADARADARADACVSVPQAL-NH2) [KS, RADA-kidney specific peptide conjugate] | 68% | 66% |  |  |  | 
EARAEARAEARAEARA [EARA-16, self-assembling peptide] | 80% | 66% | increased activation of reactive astrocytes on day 7 which subsequently reduced by day 14 | increasing inflammation levels, but at a much slower rate than the saline controls | markedly reduced the levels of inflammation | markedly reduced the levels of inflammation
